Test results taken from patent US9957253B2, “Triaminopyrimidine compounds useful for preventing or treating malaria” (MMV MEDICINES FOR MALARIA VENTURE, priority 2014, dated 2018).

Assay: Reactive intermediate trapping with GSH or NAC in liver microsomes
Assay type: in vitro ADME, human, rat
Settings: 10 μM, 2 mM GSH or NAC
Method: Metabolites of Example 13 were identified both in vitro and in vivo using the following models: • In vitro: The compound of Example 13 was incubated with human (HLM) or rat (RLM) liver microsomes (1 mg/ml protein concentration in 100 mM phosphate buffer, pH 7.4) at a final concentration of 10 μM in the presence of 2 mM NADPH. The reactive intermediates were trapped by including 2 mM glutathione (GSH) or N-acetyl cysteine (NAC) in the reaction mix. • In vivo in bile duct cannulated rats: Example 13 was administered intravenously (IV) as a bolus through the jugular vein at a dose of 2 mg/kg or 4 mg/kg of body weight for control (n=3) or BDC rats (n=2), respectively. Blood samples were collected at 0.083, 0.25, 0.5, 1, 2, 4, 6, 8 and 24 h through the carotid artery, bile samples were collected at 0-2 h, 2-4 h, 4-6 h, 6-8 h and 8-24 h intervals and urine samples were collected at 0-8 h and 8-24 h intervals. The bile and urine samples were analyzed for the presence of parent and metabolites and blood samples were analyzed for the presence of parent.

Cc1nc(Nc2ncc(N3CCN(C)[C@H](C)C3)c(Nc3cc(C)n(C)n3)n2)cc(C2CC2)c1F [Example 13, (R)—N2-(4-cyclopropyl-5-fluoro-6-methylpyridin-2-yl)-N4-(1,5-dimethyl-1H-pyrazol-3-yl)-5-(3,4-dimethylpiperazin-1-yl)pyrimidine-2,4-diamine]
GSH or NAC adduct (reactive metabolite) formation: no GSH or NAC adduct formation
